A word on the IC50: it is the concentration that inhibits the measured activity by half.

Where only a bound is given, the exact number is not on record here.

One experiment concerns the target human recombinant BACE1 (Homo sapiens (Human), UniProt P56817). Put plainly: In vitro enzymatic BACE1 FRET assay. The following applies: read-out: IC50 IP (μM) BACE1 enzyme. Format: biochemical. The method, boiled down: (§1)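 Tris addition raises the pH to neutral to stop the reaction before fluorescence is measured at 590 nm emission with 488 nm excitation.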
In the next experiment the target is human recombinant BACE2 (Homo sapiens (Human), UniProt Q9Y5Z0). The experiment can be described thus: In vitro enzymatic BACE2 FRET assay. It is filed as biochemical. As to conditions: read-out: IC50 IP (μM) BACE2 enzyme. The method in brief:
as §1

Experiment [1] deals with Aβ40 in conditioned medium of cells stably expressing Amyloid Precursor Protein (APP). Put plainly: In vitro BACE-1 cell-based assay (Aβ40 sandwich ELISA). The following applies: read-out: IC50 IP (μM) BACE1 cell. The method, boiled down: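 Read-out: time-resolved fluorescence (Streptavidin-Europium) of Aβ40 captured by pAb40 and detected with biotinylated 6E10 from supernatants of APP-stable cells. Cells were exposed to compound for 24 h, 10-point dose response, top dose 100 μM or 10 μM, 0.1% DMSO. IC50 fitted to percent of control.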

The target of another experiment is Recombinant Cat D (Homo sapiens (Human), UniProt P07339). Put plainly: In vitro enzymatic Cathepsin D (Cat D) FRET assay. It is filed as biochemical. The following applies: read-out: IC50 IP (μM) CatD. The method, boiled down: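 Cleavage of a 20 nM FRET peptide by CHO-derived Cat D over 1 h at pH 3.5 (citrate buffer with CHAPS, 10% DMSO final). Endpoint fluorescence is read after Tris quench.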
Recombinant Cat D, sequence (P07339 65-412): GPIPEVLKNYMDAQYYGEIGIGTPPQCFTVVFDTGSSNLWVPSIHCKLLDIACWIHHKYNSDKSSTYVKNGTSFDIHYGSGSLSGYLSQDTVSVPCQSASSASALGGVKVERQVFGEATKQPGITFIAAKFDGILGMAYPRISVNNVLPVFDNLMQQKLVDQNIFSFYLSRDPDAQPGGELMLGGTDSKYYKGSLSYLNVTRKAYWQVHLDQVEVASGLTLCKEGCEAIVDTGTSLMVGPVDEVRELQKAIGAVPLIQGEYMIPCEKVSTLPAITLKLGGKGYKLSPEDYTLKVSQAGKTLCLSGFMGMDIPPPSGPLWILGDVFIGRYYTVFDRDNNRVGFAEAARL

human recombinant BACE1, sequence (P56817 46-501): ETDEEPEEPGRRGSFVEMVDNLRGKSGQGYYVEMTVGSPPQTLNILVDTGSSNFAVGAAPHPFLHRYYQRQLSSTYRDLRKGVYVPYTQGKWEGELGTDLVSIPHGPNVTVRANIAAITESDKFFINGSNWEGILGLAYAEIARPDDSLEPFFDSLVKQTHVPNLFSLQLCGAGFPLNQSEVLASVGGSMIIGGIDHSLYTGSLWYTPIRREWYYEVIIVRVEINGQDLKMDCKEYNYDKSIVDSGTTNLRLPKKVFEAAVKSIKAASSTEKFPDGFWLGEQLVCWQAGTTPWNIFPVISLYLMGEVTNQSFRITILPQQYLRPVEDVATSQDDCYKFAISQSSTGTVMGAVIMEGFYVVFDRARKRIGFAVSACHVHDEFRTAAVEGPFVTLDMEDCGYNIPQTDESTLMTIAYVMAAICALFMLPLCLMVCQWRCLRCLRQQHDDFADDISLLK
human recombinant BACE2, sequence (Q9Y5Z0 63-518): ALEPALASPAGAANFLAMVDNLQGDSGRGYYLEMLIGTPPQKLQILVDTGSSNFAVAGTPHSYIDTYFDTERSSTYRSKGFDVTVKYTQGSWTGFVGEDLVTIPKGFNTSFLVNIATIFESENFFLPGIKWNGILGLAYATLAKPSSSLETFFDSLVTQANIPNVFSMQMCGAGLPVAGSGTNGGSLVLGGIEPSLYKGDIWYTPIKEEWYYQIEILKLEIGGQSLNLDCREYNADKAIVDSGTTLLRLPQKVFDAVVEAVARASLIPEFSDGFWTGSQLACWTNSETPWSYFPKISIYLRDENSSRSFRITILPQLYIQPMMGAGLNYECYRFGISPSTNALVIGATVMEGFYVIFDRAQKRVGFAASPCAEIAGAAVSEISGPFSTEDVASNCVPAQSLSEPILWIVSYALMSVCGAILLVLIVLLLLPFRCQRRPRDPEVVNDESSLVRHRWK

For the molecule `C[C@]1(c2cc(Nc3nccc4cc(OCc5ncco5)cnc34)cnc2F)N=C(N)S[C@]2(CO)[C@H]1C2(F)F` [Example 669, ((1S,5S,6R)-3-amino-7,7-difluoro-5-(2-fluoro-5-((3-(1,3-oxazol-2-ylmethoxy)-1,7-naphthyridin-8-yl)amino)-3-pyridinyl)-5-methyl-2-thia-4-azabicyclo[4.1.0]hept-3-en-1-yl)methanol], the IC50 turned out to be 0.00119 µM on human recombinant BACE1, 0.036 µM at human recombinant BACE2, 0.00593 µM in experiment [1] and 1140 µM at Recombinant Cat D.

On to `C#CCOc1cnc2c(Nc3cnc(F)c([C@@]4(C)N=C(N)S[C@@]5(CO)C[C@H]54)c3)ncnc2c1` [Example 670, ((1S,5S,6S)-3-amino-5-(2-fluoro-5-((7-(2-propyn-1-yloxy)pyrido[3,2-d]pyrimidin-4-yl)amino)-3-pyridinyl)-5-methyl-2-thia-4-azabicyclo[4.1.0]hept-3-en-1-yl)methanol], for which the IC50 at human recombinant BACE1 turned out to be 0.0024 µM; on human recombinant BACE2, 0.17 µM; in experiment [1], 0.000969 µM; on Recombinant Cat D, 730 µM.

Regarding `C#CCOc1cnc2c(Nc3ccc(F)c([C@@]4(C)N=C(N)S[C@@]5([C@H](O)C(F)(F)F)C[C@H]54)c3)nccc2n1` [Example 671, (1R)-1-((1S,5S,6S)-3-amino-5-(2-fluoro-5-((2-(2-propyn-1-yloxy)pyrido[3,4-b]pyrazin-5-yl)amino)phenyl)-5-methyl-2-thia-4-azabicyclo[4.1.0]hept-3-en-1-yl)-2,2,2,-trifluoroethanol], the IC50 at human recombinant BACE1 was found to be 0.000943 µM; at human recombinant BACE2 it was 0.0236 µM; in experiment [1] it was 0.00177 µM; at Recombinant Cat D it was 1040 µM.

On to `C#CCOc1cnc2c(Nc3ccc(F)c([C@@]4(C)N=C(N)S[C@@]5([C@@H](O)C(F)(F)F)C[C@H]54)c3)nccc2n1` [Example 672, (1S)-1-((1S,5S,6S)-3-amino-5-(2-fluoro-5-((2-(2-propyn-1-yloxy)pyrido[3,4-b]pyrazin-5-yl)amino)phenyl)-5-methyl-2-thia-4-azabicyclo[4.1.0]hept-3-en-1-yl)-2,2,2-trifluoroethanol], for which the IC50 at human recombinant BACE1 is 0.00142 µM; at human recombinant BACE2 it was 0.0685 µM; in experiment [1], 0.007 µM; at Recombinant Cat D, 638 µM.

Regarding `C#CCOc1cnc(C(=O)Nc2ccc(F)c([C@@]3(C)N=C(N)S[C@@]4([C@H](O)C(F)(F)F)C[C@H]43)c2)cn1` [Example 673, N-(3-((1S,5S,6S)-3-amino-5-methyl-1-((1R)-2,2,2-trifluoro-1-hydroxyethyl)-2-thia-4-azabicyclo[4.1.0]hept-3-en-5-yl)-4-fluorophenyl)-5-(2-propyn-1-yloxy)-2-pyrazinecarboxamide], the IC50 at human recombinant BACE1 stood at 0.000389 µM; on human recombinant BACE2 it was 0.00602 µM; in experiment [1], 0.000398 µM; at Recombinant Cat D, 101 µM.

On to `C#CCOc1cnc(C(=O)Nc2ccc(F)c([C@@]3(C)N=C(N)S[C@@]4([C@@H](O)C(F)(F)F)C[C@H]43)c2)cn1` [Example 674, N-(3-((1S,5S,6S)-3-amino-5-methyl-1-((1S)-2,2,2-trifluoro-1-hydroxyethyl)-2-thia-4-azabicyclo[4.1.0]hept-3-en-5-yl)-4-fluorophenyl)-5-(2-propyn-1-yloxy)-2-pyrazinecarboxamide], for which the IC50 at human recombinant BACE1 turned out to be 0.000368 µM; on human recombinant BACE2, 0.0133 µM; in experiment [1], 0.000776 µM; at Recombinant Cat D, 149 µM.

Regarding `COC[C@]12C[C@H]1[C@@](C)(c1cc(NC(=O)c3ncc(OCC(F)(F)F)cc3C)cc(F)c1F)N=C(N)S2` [Example 675, N-(3-((1S,5S,6S)-3-amino-1-(methoxymethyl)-5-methyl-2-thia-4-azabicyclo[4.1.0]hept-3-en-5-yl)-4,5-difluorophenyl)-3-methyl-5-(2,2,2-trifluoroethoxy)-2-pyridinecarboxamide], the IC50 at human recombinant BACE1 is 0.0124 µM; at human recombinant BACE2, 0.703 µM; in experiment [1], 0.0519 µM; on Recombinant Cat D, 1010 µM.

For the molecule `C#CCOc1cnc2c(Nc3cnc(F)c([C@@]4(C)N=C(N)S[C@@]5([C@H](OC)C(F)(F)F)C[C@H]54)c3)nccc2n1` [Example 676, N-(5-((1S,5S,6S)-3-amino-5-methyl-1-((1R)-2,2,2-trifluoro-1-methoxyethyl)-2-thia-4-azabicyclo[4.1.0]hept-3-en-5-yl)-6-fluoro-3-pyridinyl)-2-(2-propyn-1-yloxy)pyrido[3,4-b]pyrazin-5-amine], the IC50 at human recombinant BACE1 is 0.00155 µM; at human recombinant BACE2 it was 0.0157 µM; in experiment [1], 0.0033 µM; on Recombinant Cat D it was 337 µM.

In the case of `C#CCOc1cnc2c(Nc3cnc(F)c([C@@]4(C)N=C(N)S[C@@]5([C@@H](OC)C(F)(F)F)C[C@H]54)c3)nccc2n1` [Example 677, N-(5-((1S,5S,6S)-3-amino-5-methyl-1-((1S)-2,2,2-trifluoro-1-methoxyethyl)-2-thia-4-azabicyclo[4.1.0]hept-3-en-5-yl)-6-fluoro-3-pyridinyl)-2-(2-propyn-1-yloxy)pyrido[3,4-b]pyrazin-5-amine], the IC50 at human recombinant BACE1 is 0.0016 µM; at human recombinant BACE2, 0.00948 µM; in experiment [1], 0.00305 µM; at Recombinant Cat D, 306 µM.

On to `COC[C@]12C[C@H]1[C@@](C)(c1cc(NC(=O)c3ncc(OCC(F)(F)F)cc3C)ccc1F)N=C(N)S2` [Example 681, N-(3-((1S,5S,6S)-3-amino-1-(methoxymethyl)-5-methyl-2-thia-4-azabicyclo[4.1.0]hept-3-en-5-yl)-4-fluorophenyl)-3-methyl-5-(2,2,2-trifluoroethoxy)-2-pyridinecarboxamide], for which the IC50 turned out to be 0.0109 µM on human recombinant BACE1, 0.789 µM at human recombinant BACE2, 0.0555 µM in experiment [1] and 1450 µM at Recombinant Cat D.

As for `C#CCOc1cnc(C(=O)Nc2ccc(F)c([C@@]3(C)N=C(N)S[C@@]4(COC)C[C@H]43)c2)c(C)c1` [Example 683, N-(3-((1S,5S,6S)-3-amino-1-(methoxymethyl)-5-methyl-2-thia-4-azabicyclo[4.1.0]hept-3-en-5-yl)-4-fluorophenyl)-3-methyl-5-(2-propyn-1-yloxy)-2-pyridinecarboxamide], the IC50 turned out to be 0.00391 µM at human recombinant BACE1, 0.0267 µM on human recombinant BACE2, 0.008 µM in experiment [1] and 2100 µM at Recombinant Cat D.

In the case of `C#CCOc1cnc(C(=O)Nc2cc(F)c(F)c([C@@]3(C)N=C(N)S[C@@]4(CF)C[C@H]43)c2)c(C)c1` [Example 684, N-(3-((1S,5S,6S)-3-amino-1-(fluoromethyl)-5-methyl-2-thia-4-azabicyclo[4.1.0]hept-3-en-5-yl)-4,5-difluorophenyl)-3-methyl-5-(2-propyn-1-yloxy)-2-pyridinecarboxamide], the IC50 at human recombinant BACE1 was 0.00146 µM; at human recombinant BACE2, 0.0332 µM; in experiment [1], 0.00684 µM; on Recombinant Cat D, 1040 µM.

As to `C#CCOc1cnc(C(=O)Nc2cc(F)c(F)c([C@@]3(C)N=C(N)S[C@@]4(C(F)F)C[C@@H]34)c2)c(C)c1` [Example 685, N-(3-((1S,5S,6S)-3-amino-1-(difluoromethyl)-5-methyl-2-thia-4-azabicyclo[4.1.0]hept-3-en-5-yl)-4,5-difluorophenyl)-3-methyl-5-(2-propyn-1-yloxy)-2-pyridinecarboxamide], the IC50 is 0.00112 µM on human recombinant BACE1, 0.018 µM at human recombinant BACE2, 0.0197 µM in experiment [1] and 463 µM at Recombinant Cat D.

In the case of `C#CCOc1cnc(C(=O)Nc2ccc(F)c([C@@]3(C)N=C(N)S[C@@]4(C(F)F)C[C@@H]34)c2)c(C)c1` [Example 686, N-(3-((1S,5S,6S)-3-amino-1-(difluoromethyl)-5-methyl-2-thia-4-azabicyclo[4.1.0]hept-3-en-5-yl)-4-fluorophenyl)-3-methyl-5-(2-propyn-1-yloxy)-2-pyridinecarboxamide], the IC50 was found to be 0.00167 µM on human recombinant BACE1, 0.0221 µM at human recombinant BACE2, 0.00967 µM in experiment [1] and 496 µM at Recombinant Cat D.

Regarding `COC[C@]12C[C@H]1[C@@](C)(c1cc(NC(=O)c3ncc(O[C@@H](C)c4ncco4)cc3C)cc(F)c1F)N=C(N)S2` [Example 687, N-(3-((1S,5S,6S)-3-amino-1-(methoxymethyl)-5-methyl-2-thia-4-azabicyclo[4.1.0]hept-3-en-5-yl)-4,5-difluorophenyl)-3-methyl-5-((1S)-1-(1,3-oxazol-2-yl)ethoxy)-2-pyridinecarboxamide], the IC50 on human recombinant BACE1 was 0.117 µM; at human recombinant BACE2, 2.52 µM; in experiment [1] it was 0.569 µM; on Recombinant Cat D, above 400 µM.

As for `COC[C@]12C[C@H]1[C@@](C)(c1cc(NC(=O)c3ncc(O[C@H](C)c4ncco4)cc3C)cc(F)c1F)N=C(N)S2` [Example 688], the IC50 at human recombinant BACE1 was 0.548 µM; at human recombinant BACE2, 0.709 µM; in experiment [1], 3.89 µM; on Recombinant Cat D it was 1320 µM.

With `C#CCOc1cnc(C(=O)Nc2ccc(F)c([C@@]3(C)N=C(N)S[C@@]4(CF)C[C@H]43)c2)c(C)c1` [Example 690, N-(3-((1S,5S,6S)-3-amino-1-(fluoromethyl)-5-methyl-2-thia-4-azabicyclo[4.1.0]hept-3-en-5-yl)-4-fluorophenyl)-3-methyl-5-(2-propyn-1-yloxy)-2-pyridinecarboxamide], the IC50 is 0.00418 µM on human recombinant BACE1, 0.026 µM on human recombinant BACE2, 0.00779 µM in experiment [1] and 675 µM at Recombinant Cat D.

Source of the values: patent publication US20160046618A1, “Cyclopropyl Fused Thiazin-2-Amine Compounds as Beta-Secretase Inhibitors and Methods of Use” (AMGEN INC., priority 2014, published 2016).
